# “Also recorded” adds a separate entry of the source. Read-outs that look alike come from different tables or passages of the source.
# Tests used:
# [1] = molecular target: T1, CTR107 WT (C. tepidium Gyrl-like protein, wild type, SEQ ID NO:4) (Chlorobaculum tepidum, UniProt Q8KFZ1); test: biochemical; assay type: binding; conditions: for Kd: read-out: dissociation constant
# T1 construct: begins […]
# [2] = molecular target: T2, SAV2435 WT (S. aureus Gyrl-like protein, wild type, SEQ ID NO:2) (Staphylococcus aureus, UniProt A0A0H3K0Y5); assay type: binding
# T2 construct: listing organism Escherichia coli is only the host
# [3] = molecular target: T3, LIN2189 WT (L. innocua Gyrl-like protein, wild type, SEQ ID NO:6) (Listeria innocua, UniProt Q929T5); test: Fluorescence binding assay (enhancement/quenching of dye fluorescence)
# T3 construct: recombinant, purified
# T3 sequence (Q929T5 with tags, fused parts or gaps): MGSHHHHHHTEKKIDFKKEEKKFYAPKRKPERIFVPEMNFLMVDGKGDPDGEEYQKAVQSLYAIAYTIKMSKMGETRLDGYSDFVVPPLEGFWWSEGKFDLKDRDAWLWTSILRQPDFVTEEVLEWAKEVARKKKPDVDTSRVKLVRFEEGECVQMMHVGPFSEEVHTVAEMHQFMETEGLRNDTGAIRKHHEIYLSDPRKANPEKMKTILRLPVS
# Experimental: Fluorescence Binding Assay
# CTR107 when added at 10 μM induced a 10-fold increase in DFHBI fluorescence (FIG. 6A).
# Malachite Green fluoresces in the far-red regions when stimulated by binding aptamers, therefore we monitored its fluorescence emission at 665-720 nm after exciting at 635 nm.
# Thioflavin T is a benzothiazole dye that has also been used in many fluorescence applications. […] The Corn aptamer is able to bind to two Thioflavin T molecules at a homodimer interface formed by G-quadruplexes. We tested whether Gyrl-like proteins could function as fluorescence enhancement aptamers of Thioflavin T. Thioflavin T has excitation and emission maxima of […], respectively. We probed the fluorescence enhancing properties of SAV2435, CTR107 and LIN2189 variants on Thioflavin T (FIG. 8). […] All other variants display either a small 4-6 fold increase or no increase in Thioflavin T fluorescence.
# [4] = system: C. tepidium CTR107 variant Y106W (SEQ ID NO:20); test: biochemical; assay type: binding
# [5] = molecular target: T4, C. tepidium CTR107 variant Y106W (SEQ ID NO:20) (Chlorobaculum tepidum, UniProt Q8KFZ1, Y106W); test: biochemical; assay type: binding
# T4 sequence (Q8KFZ1 with tags, fused parts or gaps Y106W): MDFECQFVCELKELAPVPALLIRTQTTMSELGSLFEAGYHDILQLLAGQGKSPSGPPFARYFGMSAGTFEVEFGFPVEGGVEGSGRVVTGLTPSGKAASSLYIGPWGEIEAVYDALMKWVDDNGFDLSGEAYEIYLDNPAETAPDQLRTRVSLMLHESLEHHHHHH
# [6] = molecular target: S. aureus SAV2435 variant V105W (SEQ ID NO:10) (Staphylococcus aureus, UniProt A0A0H3K0Y5, V105W); assay type: binding
# [7] = molecular target: S. aureus SAV2435 variant Y137W (SEQ ID NO:16) (Staphylococcus aureus, UniProt A0A0H3K0Y5, V105W/Y137W); assay type: binding; conditions: Oxazine 170
# [8] = molecular target: S. aureus SAV2435 variant N27W (SEQ ID NO:8) (Staphylococcus aureus, UniProt A0A0H3K0Y5, Q27W); assay type: binding; conditions: Oxazine 170
# [9] = molecular target: S. aureus SAV2435 variant E135Q (SEQ ID NO:14) (Staphylococcus aureus, UniProt A0A0H3K0Y5, E135Q/V105W); assay type: binding; conditions: Oxazine 170
# [10] = molecular target: S. aureus SAV2435 variant P106W (SEQ ID NO:12) (Staphylococcus aureus, UniProt A0A0H3K0Y5, P106W); assay type: binding
# [11] = molecular target: C. tepidium CTR107 variant E36R (SEQ ID NO:18) (Chlorobaculum tepidum, UniProt Q8KFZ1, E36R); assay type: binding; conditions: 500 nM SYTO9
# [12] = molecular target: T5, C. tepidium CTR107 variant E133Q (SEQ ID NO:22) (Chlorobaculum tepidum, UniProt Q8KFZ1, E133Q); assay type: binding; conditions: 500 nM SYTO9
# T5 sequence (Q8KFZ1 with tags, fused parts or gaps E133Q): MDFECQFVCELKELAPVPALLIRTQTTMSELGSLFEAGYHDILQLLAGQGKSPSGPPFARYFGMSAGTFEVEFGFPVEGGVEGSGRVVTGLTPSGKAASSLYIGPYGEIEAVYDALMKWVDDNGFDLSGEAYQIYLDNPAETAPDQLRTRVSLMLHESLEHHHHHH
# TAMRA-DNA = test: TAMRA-labeled DNA fluorescence quenching assay; conditions: 5 nM protein
# [13] = FAM fluorescence quenching assay; assay type: biochemical; conditions: 1 μM FAM, saturating protein
# Source text: The fluorescence enhancing or quenching properties of Gyrl-like proteins can be used as a tool for identifying aptamers for target organic compounds. Building on Examples 1-8 we designed a protocol for identifying aptamers that bind to fluorescent dyes 5(6)-Carboxyfluorescein (FAM) and 5-Carboxytetramethylrhodamine (TAMRA) (FIG. 4). Both dyes are similar in structure and fluorescence in the green and red regions, respectively. The binding of FAM and TAMRA by Gyrl-like variant aptamers will result in enhancement or quenching of fluorescence. The invention method starts with screening our 3-selected wildtype Gyrl-like proteins to determine which can alter the fluorescence of FAM in solution (FIG. 11A).
# [14] = Acridine Orange fluorescence assay; conditions: 500 nM Acridine Orange
# [15] = pH stability of Thiazole Orange fluorescence module
# [16] = UV fluorescence quenching of Oxazine 170 and reversibility; conditions: UV light
# [17] = Colorimetric conversion of Iodonitrotetrazolium to Formazan; conditions: 100 μM NADH; 500 μM Iodonitrotetrazolium; 5 minutes
# [18] = 500 nM Malachite Green, 10 μM protein, ex 635 nm, em 665-720 nm
# [19] = 100 nM Oxazine 170, 100 nM protein
# [20] = 500 nM Oxazine 170, saturating protein
# [21] = 1 μM Thiazole Orange, saturating protein
# [22] = 1 μM SYTO9, 10 μM protein, em 665-720 nm
# [23] = 1 μM SYTO9, 10 μM protein, ex 470 nm, em 510-580 nm
# T1 sequence (Q8KFZ1 entry or part of it): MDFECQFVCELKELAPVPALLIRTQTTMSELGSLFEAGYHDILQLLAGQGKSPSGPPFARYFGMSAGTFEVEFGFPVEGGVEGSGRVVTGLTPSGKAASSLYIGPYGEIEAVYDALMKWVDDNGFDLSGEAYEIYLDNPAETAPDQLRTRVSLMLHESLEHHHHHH
# Sequence of C. tepidium CTR107 variant E36R (SEQ ID NO:18) (Q8KFZ1 entry or part of it E36R): as the sequence (Q8KFZ1 entry or part of it) above, with E36R counted along it
molecule,measurement,setting,value
CC1=N/C(=C\c2cc(F)c(O)c(F)c2)C(=O)N1C [DFHBI],increase in fluorescence,"[1]; DFHBI, 10 μM protein",10 fold
same,increase in fluorescence (green channel),"[2]; 500 nM DFHBI, 10 μM protein",20 fold
same,effect on fluorescence,[3]; 500 nM DFHBI,no effect on fluorescence
COc1cccc2c1C(=O)c1c(O)c3c(c(O)c1C2=O)C[C@@](O)(C(C)=O)C[C@@H]3O[C@H]1C[C@H](N)[C@H](O)[C@H](C)O1 [Daunorubicin],fluorescence decrease (green channel),[1]; 50 μM daunorubicin,greater than 2 fold
same,Kd,"[1]; Daunorubicin, nonlinear regression, Hill equation",4000 nM
same,increase in binding affinity compared to wildtype CTR107,[4]; Daunorubicin,approximately 100 fold
same,Kd,[5],42 nM
same,fluorescence decrease (green channel),[5]; 50 μM daunorubicin,3 fold
CN(C)c1ccc(C(=C2C=CC(=[N+](C)C)C=C2)c2ccccc2)cc1 [Malachite Green],increase in fluorescence (red channel),[1]; [18],18 fold
same,increase in fluorescence (red channel),[2]; [18],10 fold
same,effect on fluorescence enhancement,[3]; 500 nM Malachite Green,no effect on fluorescence enhancement
CCN=c1cc2oc3cc(NCC)c(C)cc3nc-2c2ccccc12 [Oxazine 170],fluorescence decrease at 100 nM protein,[6]; [19],60%
same,quenching effect,[7],small decrease
same,reduction in fluorescence,[8],529 fold
same,shut-off of fluorescence,[8],~100%
same,reduction in fluorescence (red channel),[1]; [20],6 fold
same,reduction in fluorescence,[9],303 fold
same,shut-off of fluorescence,[9],~100%
same,protein concentration for 50% quenching,[2]; 100 nM Oxazine 170,10 to 50 nM
same,fluorescence shut-off at 100 nM protein,[2]; [19],~100%
same,decrease in fluorescence (red channel),[2]; [20],303 fold
same,shut-off of fluorescence,[2]; [20],~100%
same,quenching potency relative to CTR107 WT,[4]; Oxazine 170,5 fold
same,decrease in fluorescence,[5]; Oxazine 170,47 fold
same,fluorescence decrease at 100 nM protein,[10]; [19],60%
CN1C(=Cc2cc[n+](C)c3ccccc23)Sc2ccccc21 [Thiazole Orange],fluorescence enhancement vs. dye alone (red channel),[6]; Thiazole Orange,50 fold
same,enhancement relative to wildtype,"[6]; Thiazole Orange, vs SAV2435 WT",3 fold
same,effect on fluorescence,[1]; [21],no effects; also recorded: no enhancement
same,increase in fluorescence (green channel),[2]; [21],50 fold
same,increase in fluorescence (red channel),[2]; [21],5 fold
same,fluorescence increase (channel not stated),[2]; Thiazole Orange,20 fold
same,fluorescence enhancement (green channel),[5]; Thiazole Orange,13 fold
same,fluorescence enhancement (red channel),[5]; Thiazole Orange,20 fold
same,effect on fluorescence,[3]; [21],no effects
same,fluorescence enhancement vs. dye alone (red channel),[10]; Thiazole Orange,50 fold
same,enhancement relative to wildtype,"[10]; Thiazole Orange, vs SAV2435 WT",3 fold
Cc1ccc2c(c1)sc(-c1ccc(N(C)C)cc1)[n+]2C [Thioflavin T],fluorescence enhancement (green and red channel),[1]; Thioflavin T,50 fold
same,fluorescence enhancement (green channel),[3]; Thioflavin T,13 fold
same,fluorescence enhancement (red channel),[3]; Thioflavin T,50 fold
SYTO9,fluorescence enhancement (red channel),[1]; [22],33 fold
same,fluorescence enhancement (green channel),[1]; [23],84 fold
same,Kd,"[1]; SYTO9, estimated, fluorescence enhancement vs. protein concentration, Hill fit",302 nM
same,fluorescence enhancement compared to wildtype CTR107,[11],weaker enhancement than wildtype
same,fluorescence enhancement (red channel),[2]; [22],11 fold
same,fluorescence enhancement (green channel),[2]; [23],21 fold
same,fluorescence enhancement (green channel),[5]; 500 nM SYTO9,115 fold
same,fluorescence enhancement (red channel),[5]; 500 nM SYTO9,19 fold
same,fluorescence enhancement (red and green channel),[3]; SYTO9,small enhancement
same,fluorescence enhancement (green channel),[12],157 fold
same,fluorescence enhancement (red channel),[12],55 fold
"LIN2189 E157A: LIN2189 variant aptamer, SEQ ID NO:28 (protein, listed as Escherichia coli) MGSHHHHHHTEKKIDFKKEEKKFYAPKRKPERIFVPEMNFLMVDGKGDPDGEEYQKAVQSLYAIAYTIKMSKMGETRLDGYSDFVVPPLEGFWWSEGKFDLKDRDAWLWTSILRQPDFVTEEVLEWAKEVARKKKPDVDTSRVKLVRFEEGECVQMMHVGPFSEAVHTVAEMHQFMETEGLRNDTGAIRKHHEIYLSDPRKANPEKMKTILRLPVS",effect on 100 nM TAMRA-DNA fluorescence,TAMRA-DNA,no effects on TAMRA fluorescence
same,decrease in FAM fluorescence,[13],no changes in fluorescence quenching compared to LIN2189 WT
"SAV2435 P106W: SAV2435 variant aptamer, SEQ ID NO:12 (protein, listed as Escherichia coli) MEYQLQQLASLTLVGIKETYENGRQAQQHIAGFWQRCYQEGVIADLQLKNNGDLAGILGLCIPELDGKMSYMIAVTGDNSADIAKYDVITLASSKYMVFEAQGAVWKAVQQKMEEVHHYIHQYQANTVKSAPFFELYQDGDTTSEKYITEIWMPVKGLEHHHHHH",Acridine Orange fluorescence increase,[14],doubled the fluorescence intensity
same,decrease in Thiazole Orange fluorescence under acidic conditions,[15]; pH 3,2 fold
same,stability of Thiazole Orange fluorescence under basic conditions,[15]; pH 11,slightly more stable than acidic
"SAV2435 Y137W: SAV2435 variant aptamer, SEQ ID NO:16 (protein, listed as Escherichia coli) MEYQLQQLASLTLVGIKETYENGRQAQQHIAGFWQRCYQEGVIADLQLKNNGDLAGILGLCIPELDGKMSYMIAVTGDNSADIAKYDVITLASSKYMVFEAQGAWPKAVQQKMEEVHHYIHQYQANTVKSAPFFELWQDGDTTSEKYITEIWMPVKGLEHHHHHH",shut-off of Oxazine 170 red UV fluorescence,[16],non-quencher
"SAV2435 E135Q: SAV2435 variant aptamer, SEQ ID NO:14 (protein, listed as Escherichia coli) MEYQLQQLASLTLVGIKETYENGRQAQQHIAGFWQRCYQEGVIADLQLKNNGDLAGILGLCIPELDGKMSYMIAVTGDNSADIAKYDVITLASSKYMVFEAQGAWPKAVQQKMEEVHHYIHQYQANTVKSAPFFQLYQDGDTTSEKYITEIWMPVKGLEHHHHHH",Acridine Orange fluorescence increase,[14],doubled the fluorescence intensity
"CTR107 E133Q: CTR107 variant aptamer, SEQ ID NO:22 (protein, listed as Escherichia coli) MDFECQFVCELKELAPVPALLIRTQTTMSELGSLFEAGYHDILQLLAGQGKSPSGPPFARYFGMSAGTFEVEFGFPVEGGVEGSGRVVTGLTPSGKAASSLYIGPYGEIEAVYDALMKWVDDNGFDLSGEAYQIYLDNPAETAPDQLRTRVSLMLHESLEHHHHHH",Acridine Orange fluorescence increase,[14],doubled the fluorescence intensity
same,color change of Iodonitrotetrazolium with NADH,[17],faint red signal

# Source: patent US12104201B2, “Engineered gyri-like mutein aptamers, and related methods” (CROSSLIFE TECHNOLOGIES INC., priority 2019, dated 2024)
